Regarding `Cc1nc(NC2Cc3ccccc3C2)nc(-n2ccnc2)c1[N+](=O)[O-]` [2-(2-indanamino)-4-imidazol-1-yl-6-methyl-5-nitropyriridine], the melting point is 177 to 178 °C. The value for `CCc1nccn1-c1nc(NC2CCc3c(F)cc(F)cc32)nc(C)c1[N+](=O)[O-]` (stereo not shown) [2-(4,6-difluoro-1-indanamino)-4-(2-ethylimidazol-1-yl)-6-methyl-5-nitropyrimidine] was 88 to 89 °C. `Cc1nc(NC2CCc3c(F)cc(F)cc32)nc(-n2ccnc2C)c1[N+](=O)[O-]` (stereo not shown) [2-(4,6-difluoro-1-indanamino)-4-(2-methylimidazol-1-yl)-6-methyl-5-nitropyrimidine]: the melting point lay in the range of 164 to 165 °C.

For the molecule `Cc1nc(NC2CCc3c(F)cc(F)cc32)nc(-n2ccnc2)c1[N+](=O)[O-]` (stereo not shown) [2-(4,6-difluoro-1-indanamino)-4-(imidazol-1-yl)-6-methyl-5-nitropyrimidine], the melting point fell in the range of 175 to 176 °C.

Usually melting point stands for the temperature, or range, at which the solid turns liquid.
